Here are results for 23 compounds from ChEMBL document CHEMBL1152231, “Discovery of small molecule agonists for the bombesin receptor subtype 3 (BRS-3) based on an omeprazole lead” (Bioorg Med Chem Lett, 2008).

Series [1] addresses T1, Bombesin receptor subtype-3 (Homo sapiens, UniProt P32247).
T1 sequence (P32247 whole entry): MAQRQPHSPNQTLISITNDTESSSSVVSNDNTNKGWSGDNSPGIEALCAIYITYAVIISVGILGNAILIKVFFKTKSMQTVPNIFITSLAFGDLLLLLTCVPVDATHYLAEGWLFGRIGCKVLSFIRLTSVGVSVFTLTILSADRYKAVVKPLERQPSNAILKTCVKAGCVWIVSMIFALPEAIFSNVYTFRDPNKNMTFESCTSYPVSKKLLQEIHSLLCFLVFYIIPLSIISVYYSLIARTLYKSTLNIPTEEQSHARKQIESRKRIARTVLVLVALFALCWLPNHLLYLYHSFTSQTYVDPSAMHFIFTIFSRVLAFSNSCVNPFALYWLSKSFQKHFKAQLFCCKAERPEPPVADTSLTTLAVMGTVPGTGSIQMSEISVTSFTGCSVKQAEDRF
In words: Agonist activity at recombinant BRS-3 receptor expressed in baculovirus-transduced HEK293 cells assessed as intracellular calcium mobilization by FLIPR assay. It counts as functional.

Series [2] has as its target T2, Bombesin receptor subtype-3 (Homo sapiens) (UniProt P32247).
T2 sequence (whole entry): T1 sequence (P32247 whole entry)
The series can be described thus: Agonist activity at recombinant BRS-3 receptor expressed in baculovirus-transduced HEK293 cells assessed as maximum response of intracellular calcium mobilization by FLIPR assay relative to D-Phe-Gln-Trp-Ala-Val-beta-Ala-His-Phe-Nle-NH2. It counts as functional. In general terms: Calcium assays in cells follow changes in intracellular calcium, usually with a dye or a luminescent sensor.

Series [3] concerns the target T3, Gastrin-releasing peptide receptor (Homo sapiens, UniProt P30550). In words: Binding affinity to gastrin releasing peptide receptor.
Series [4] addresses T4, Neuromedin-B receptor (Homo sapiens, UniProt P28336). In words: Binding affinity to neuromedin B receptor.
The target of series [5] is T1, Bombesin receptor subtype-3. In words: Binding affinity to BRS-3 receptor.
The target of series [6] is T3, Gastrin-releasing peptide receptor. The series can be described thus: Agonist activity at recombinant gastrin releasing peptide receptor expressed in baculovirus-transduced HEK293 cells assessed as intracellular calcium mobilization by FLIPR assay. It counts as functional.
In series [7] the target is T4, Neuromedin-B receptor. In words: Agonist activity at recombinant neuromedin B receptor expressed in baculovirus-transduced HEK293 cells assessed as intracellular calcium mobilization by FLIPR assay. It counts as functional.
Series [8] can be described thus: Volume of distribution at steady state in iv dosed rat. It is filed as ADME, organism-based. The following applies: in vivo, read-out: Vdss.
The nature of series [9]: Half life in iv dosed rat. It counts as ADME, organism-based. The conditions noted are these: in vivo.
Series [10] in a line: Clearance in iv dosed rat. The following applies: in vivo. It counts as ADME, organism-based.

The term EC50 denotes the concentration needed to bring the measured effect to its halfway point. A word on the Ki: it is the equilibrium dissociation constant of an inhibitor or competing ligand from its target. High values mean weaker binding, low ones tighter binding. Usually half-life stands for how long it takes for the measured level to halve. A higher half-life goes with slow loss. By clearance is commonly meant a measure of how efficiently the substance is removed, as volume per time. Higher therefore signals efficient removal.

Square brackets hold non-standard residues; d marks the D form. Peptide text beside a SMILES is read from it. Nle = CCCC[C@H](N)C(=O)O; βAla = NCCC(=O)O Some results are limits rather than exact numbers.

T3 sequence (P30550 whole entry): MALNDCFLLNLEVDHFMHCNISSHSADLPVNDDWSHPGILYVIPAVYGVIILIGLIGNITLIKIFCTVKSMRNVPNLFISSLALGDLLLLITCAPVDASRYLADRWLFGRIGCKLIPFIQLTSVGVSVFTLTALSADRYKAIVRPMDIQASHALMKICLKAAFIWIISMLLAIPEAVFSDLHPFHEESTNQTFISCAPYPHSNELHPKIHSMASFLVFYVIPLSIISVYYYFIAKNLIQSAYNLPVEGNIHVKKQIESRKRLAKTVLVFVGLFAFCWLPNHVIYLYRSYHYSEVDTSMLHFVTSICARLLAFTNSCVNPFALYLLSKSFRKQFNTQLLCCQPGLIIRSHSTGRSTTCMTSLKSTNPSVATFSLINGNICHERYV
T4 sequence (P28336 whole entry): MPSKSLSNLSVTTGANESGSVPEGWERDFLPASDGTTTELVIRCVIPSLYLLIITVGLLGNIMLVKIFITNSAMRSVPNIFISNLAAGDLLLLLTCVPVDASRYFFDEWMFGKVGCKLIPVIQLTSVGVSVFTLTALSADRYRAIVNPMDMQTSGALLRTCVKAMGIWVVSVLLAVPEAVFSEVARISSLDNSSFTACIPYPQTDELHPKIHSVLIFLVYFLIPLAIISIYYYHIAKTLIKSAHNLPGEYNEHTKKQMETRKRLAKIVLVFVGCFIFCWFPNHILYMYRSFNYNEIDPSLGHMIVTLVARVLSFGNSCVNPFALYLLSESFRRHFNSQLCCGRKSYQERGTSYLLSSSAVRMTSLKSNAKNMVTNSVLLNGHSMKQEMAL

Consider `COc1ccc2nc(C(C)Cc3cc4c(cc3Cl)OCO4)[nH]c2c1` (stereo not given), for which the EC50 in series [1] came to 350 nM. Moreover, the %max in [2] was determined as 83%.

As to `COc1cc(CSc2nc3ccc(OC)cc3[nH]2)cc(OC)c1`, the concentration giving a half-maximal response (EC50) in series [1] was 1600 nM. For the same compound, the %max in series [2] amounted to 68%.

Consider `COc1ccc2oc(CCc3cc4c(cc3Cl)OCO4)nc2c1`, for which, in series [1], the EC50 is above 32000 nM.

On to `COc1ccc2nc(CCc3cc4c(cc3Cl)OCO4)oc2c1`, for which the concentration giving a half-maximal response (EC50) in series [1] is above 32000 nM.

Take `COc1ccc2[nH]c([S+]([O-])Cc3ncc(C)c(OC)c3C)nc2c1` (stereo not given) [OMEPRAZOLE]: in [1], the EC50 came to 14000 nM. Also, the %max in series [2] was 27%.

With `COc1ccc2[nH]c(SCc3ncc(C)c(OC)c3C)nc2c1` [UFIPRAZOLE], in series [1], the EC50 was determined as 3900 nM. Besides, the %max in series [2] was determined as 64%.

As for `COc1ccc2nc(CCc3cc4c(cc3Cl)OCO4)sc2c1`, the concentration for a half-maximal effect (EC50) in [1] is above 32000 nM.

For the compound `Cc1cc2nc(COc3cc4c(cc3Cl)OCO4)[nH]c2cc1Cl`, the EC50 in [1] is above 32000 nM.

Turning to `COc1ccc2sc(CCc3cc4c(cc3Cl)OCO4)nc2c1`, the concentration for a half-maximal effect (EC50) in series [1] is above 32000 nM.

For the compound `COc1ccc2nc(SCc3ccc(F)c(F)c3)[nH]c2c1`, the EC50 in series [1] was above 32000 nM.

Turning to `Clc1ccc2nc(COc3cc4c(cc3Cl)OCO4)[nH]c2c1`, the EC50 in series [1] came out at 570 nM. Moreover, in series [2], the %max was determined as 59%.

In the case of `COc1ccc2nc(SCc3ccc4ccccc4c3)[nH]c2c1`, the EC50 in [1] is above 32000 nM.

On to `COc1ccc2nc(NC(=O)c3cc4c(cc3Cl)OCO4)[nH]c2c1`, for which the 50% effective concentration (EC50) in series [1] was above 32000 nM.

Consider `COc1ccc2nc(SCc3n[nH]c4ccccc34)[nH]c2c1`, for which the EC50 in series [1] is above 32000 nM.

In the case of `COc1ccc2nc(NCc3cc4c(cc3Cl)OCO4)[nH]c2c1`, the EC50 in series [1] was above 32000 nM.

In the case of `COc1ccc2nc(SCc3ccncc3)[nH]c2c1`, in [1], the EC50 was above 32000 nM.

Take `COc1ccc2nc(/C=C/c3cc4c(cc3Cl)OCO4)[nH]c2c1`: in [1], the EC50 was above 32000 nM.

Regarding `COc1ccc2nc(SCc3cc4c(cc3Cl)OCO4)[nH]c2c1`, in series [1], the EC50 stood at 380 nM. The %max in series [2] was determined as 67%.

With `CCCC[C@H](NC(=O)[C@H](Cc1ccccc1)NC(=O)[C@H](Cc1c[nH]cn1)NC(=O)CCNC(=O)[C@@H](NC(=O)[C@H](C)NC(=O)[C@H](Cc1c[nH]c2ccccc12)NC(=O)[C@H](CCC(N)=O)NC(=O)[C@H](N)Cc1ccccc1)C(C)C)C(N)=O` (H-[dF]QWAV[βAla]HF[Nle]-NH2), the EC50 in series [1] worked out at 3.9 nM; in series [6] it was 0.06 nM; at Neuromedin-B receptor [7] it was 0.55 nM. Besides, the Ki was 0.99 nM in series [3], 8.9 nM at Neuromedin-B receptor [4] and 0.36 nM in series [5].

Regarding `FC(F)(F)c1ccc2nc(COc3cc4c(cc3Cl)OCO4)[nH]c2c1`, in series [1], the EC50 was determined as 240 nM. For the same compound, the %max in series [2] was 69%.

Consider `COc1ccc2nc(COc3cc4c(cc3Cl)OCO4)[nH]c2c1`, for which, in series [1], the EC50 worked out at 510 nM. In addition, the %max in series [2] came out at 71%. Also, the Vd in [8] came out at 1.2 L/kg. Besides, in series [9], the half-life amounted to 30 min. Further, in [10], the clearance stood at 61 mL/min/kg.

Regarding `COc1ccc2nc(CCc3cc4c(cc3Cl)OCO4)[nH]c2c1`, the EC50 in series [1] is 210 nM. Also, the %max in series [2] was found to be 82%.

With `Clc1cc2c(cc1OCc1nc3ccc(Oc4ccccc4)cc3[nH]1)OCO2`, the EC50 in series [1] was above 32000 nM.
